Assay results from ChEMBL document CHEMBL1125598, “HIV protease: a novel chemotherapeutic target for AIDS” (J Med Chem, 1991).
“And” between values parts separate entries of the source, which are not always exact repeats. Equal entries are not always repeated. Peptide text beside a SMILES is read from it.

How the values were obtained:
[1] = biological target: T1, Human immunodeficiency virus type 1 protease (Human immunodeficiency virus 1, UniProt Q72874); experiment: Binding affinity for HIV-1 protease
[2] = biological target: T1, Human immunodeficiency virus type 1 protease; experiment: The compound was tested for its affinity against HIV-1 protease
JM1 = experiment: Antiviral activity in HIV-1GB8 infected JM cells; format: functional, cell-based; conditions: Homo sapiens
C8166 = experiment: Antiviral activity in HIV-1RF infected C8166 cells; format: functional, cell-based; conditions: Homo sapiens
[3] = tested on: Human immunodeficiency virus 1; experiment: Concentration for prevention of spread of HIV infection; range 25-100 uM; format: functional, organism-based
[4] = Toxicity against HIV-1 mB in H9 cells; Range 10 to >100 uM; format: cell-based; conditions: human, read-out: TC50 (the source's name)
[5] = Toxicity against HIV-1 mB in MT-4 cells; Range 10 to >100 uM; format: cell-based, MT4; conditions: human, read-out: TC50 (the source's name)
MT4 = experiment: Inhibitory activity against HIV-1 mB in MT-4 cells; Range 20-150 nM; format: functional, cell-based; conditions: Homo sapiens
H9 [6] = experiment: Inhibitory activity against HIV-1 mB in H9 cells; Range 20-150 nM; format: functional, cell-based; conditions: Homo sapiens
H9 [7] = experiment: Inhibitory activity against HIV-1IIIb in H-9 cells using immunofluorescence; format: functional, Homo sapiens

CC[C@H](C)[C@H](NC(=O)[C@H](C(C)C)[C@@H](O)[C@H](O)[C@H](CC1CCCCC1)NC(=O)[C@H](Cc1c[nH]cn1)NC(=O)COc1cccc2ccccc12)C(=O)NCc1ccccn1
Ki [1]: < 1 nM

CC(C)[C@H](NC(=O)[C@@H](NC(=O)C(Cc1ccccc1)CP(=O)(O)[C@@H](Cc1ccccc1)NC(=O)c1ccccc1)C(C)C)C(N)=O (stereo partly drawn)
Ki [1]: 0.6 nM

CC(=O)N[C@@H](CO)C(=O)N[C@@H](CCC(N)=O)C(=O)N[C@@H](CC(N)=O)C(=O)N[C@@H](Cc1ccccc1)[C@@H](O)CC(=O)N[C@H](C(=O)N[C@H](C(N)=O)C(C)C)C(C)C (HELM PEPTIDE1{[ac].S.Q.N.[O=C(C[C@H](O)[C@H](Cc1ccccc1)N[*:1])[*:2]].V.V.[am]}$$$$V2.0)
Ki [1]: 39000 nM

COC(=O)[C@@H](NC(=O)[C@@H](NC(=O)CCP(=O)(O)[C@@H](Cc1ccccc1)NC(=O)[C@H](C)NC(=O)[C@H](C)NC(=O)[C@@H](N)CO)C(C)C)C(C)C (HELM PEPTIDE1{S.A.A.[O=C(CCP(=O)(O)[C@@H](Cc1ccccc1)N[*:1])[*:2]].V.V.[CO[*:1]]}$$$$V2.0)
Ki [1]: 4400 nM

CCCC[C@H](CN[C@H](CCCC)C(=O)N[C@@H](CCC(N)=O)C(=O)N[C@@H](CCCNC(=N)N)C(N)=O)NC(=O)[C@@H](NC(=O)[C@@H](NC(C)=O)[C@@H](C)O)[C@@H](C)CC
IC50 [2]: 780 nM

CC(C)(C)NC(=O)[C@H]1C[C@@H]2CCCC[C@@H]2CN1C[C@@H](O)[C@H](Cc1ccccc1)NC(=O)[C@H](CC(N)=O)NC(=O)c1ccc2ccccc2n1
IC50 (JM1): 2.5 nM
IC50 (C8166): 2 nM

CC[C@H](C)[C@H](NC(=O)[C@@H](C[C@H](O)[C@H](CC1CCCCC1)NC(=O)[C@H](C)NC(C)(C)C)C(C)C)C(=O)NCc1ccccn1
Ki [1]: 70 nM

CC(=O)N[C@@H](Cc1ccccc1)C(O)[C@H](Cc1ccccc1)NC(C)=O
IC50 [2]: > 10000 nM

CC(C)(C)OC(=O)C1CCCN1C[C@@H](O)[C@H](Cc1ccccc1)NC(=O)[C@H](CC(N)=O)NC(=O)OCc1ccccc1 (stereo partly drawn)
IC50 [2]: 140 nM

CC(C)C[C@H](NC(=O)[C@H](Cc1ccccc1)CP(=O)(O)[C@H](Cc1ccccc1)NC(=O)OC(C)(C)C)C(=O)N[C@@H](Cc1ccccc1)C(N)=O
IC50 [2]: 9 nM

CC(C)(C)NC(=O)C1CCCCN1C[C@@H](O)[C@H](Cc1ccccc1)NC(=O)[C@H](CC(N)=O)NC(=O)c1ccc2ccccc2n1 (stereo partly drawn)
IC50 [2]: 2 nM

CC(C)[C@H](NC(=O)[C@@H](NC(=O)C1CCCN1CP(=O)(O)[C@@H](Cc1ccccc1)NC(=O)c1ccccc1)C(C)C)C(N)=O (stereo partly drawn)
Ki [1]: 450 nM

COC(=O)[C@@H](NC(=O)[C@@H](NC(=O)CC[C@@H](O)[C@@H](Cc1ccccc1)NC(=O)[C@H](C)NC(=O)[C@H](C)N)C(C)C)C(C)C (HELM PEPTIDE1{A.A.[O=C(CC[C@@H](O)[C@@H](Cc1ccccc1)N[*:1])[*:2]].V.V.[CO[*:1]]}$$$$V2.0)
Ki [1]: 18 nM
Concentration [3]: 100 µM

CC(C)[C@H](NC(=O)OCc1ccccc1)C(=O)N[C@@H](Cc1ccccc1)[C@H](O)[C@H](O)[C@H](Cc1ccccc1)NC(=O)[C@@H](NC(=O)OCc1ccccc1)C(C)C
CC50 [4]: 10000 nM
CC50 [5]: 10000 nM
IC50 [2]: 0.2 nM and < 0.4 nM
IC50 (MT4): 20 nM
IC50 (H9 [6]): 20 nM

CC[C@H](C)[C@H](NC(=O)[C@@H](C[C@H](O)[C@H](CC(C)C)NC(=O)[C@H](Cc1c[nH]cn1)NC(=O)[C@H](Cc1ccccc1)NC(=O)[C@@H]1CCCN1C(=O)[C@H](Cc1c[nH]cn1)NC(=O)OC(C)(C)C)C(C)C)C(=O)N[C@@H](Cc1c[nH]cn1)C(=O)O (HELM PEPTIDE1{[CC(C)(C)OC(=O)[*:2]].H.P.F.H.[CC(C)C[C@H](N[*:1])[C@@H](O)C[C@H](C(=O)[*:2])C(C)C].I.H}$$$$V2.0)
Ki [1]: 5 nM

CC[C@H](C)[C@H](NC(=O)C1CCCN1C[C@H](C)[C@H](Cc1ccccc1)NC(=O)[C@H](CC(N)=O)NC(=O)[C@H](CC(C)C)NC(=O)[C@H](CO)NC(C)=O)C(=O)N[C@H](C(=O)OC)C(C)C (stereo partly drawn) (HELM PEPTIDE1{[ac].S.L.N.[C[C@@H](CN1CCCC1C(=O)[*:2])[C@H](Cc1ccccc1)N[*:1]].I.V.[CO[*:1]]}$$$$V2.0)
Ki [1]: 0.66 nM

CC(C)[C@H](NC(=O)[C@@H](NC(=O)C(Cc1ccccc1)CP(=O)(O)[C@@H](Cc1ccccc1)NC(=O)[C@@H](NC(=O)[C@@H](NC(=O)OC(C)(C)C)C(C)C)C(C)C)C(C)C)C(N)=O (stereo partly drawn) (HELM PEPTIDE1{[CC(C)(C)OC(=O)[*:2]].V.V.[O=C(C(Cc1ccccc1)CP(=O)(O)[C@@H](Cc1ccccc1)N[*:1])[*:2]].V.V.[am]}$$$$V2.0)
Ki [1]: 0.04 nM

COC(=O)[C@@H](NC(=O)[C@@H](NC(=O)C[C@H](O)[C@H](Cc1ccccc1)NC(=O)[C@H](C)NC(=O)[C@H](C)NC(=O)[C@@H](N)CO)C(C)C)C(C)C (HELM PEPTIDE1{S.A.A.[O=C(C[C@H](O)[C@H](Cc1ccccc1)N[*:1])[*:2]].V.V.[CO[*:1]]}$$$$V2.0)
Ki [1]: 1200 nM

CC(C)[C@H](NC(=O)OCc1ccccc1)C(=O)N[C@@H](Cc1ccccc1)C(O)[C@H](Cc1ccccc1)NC(=O)[C@@H](NC(=O)OCc1ccccc1)C(C)C
IC50 [2]: 3 nM

CC(C)[C@H](NC(=O)[C@@H](NC(=O)[C@@H]1CCCN1C[C@H](Cc1ccccc1)NC(=O)[C@H](C)NC(=O)[C@H](C)NC(=O)[C@@H](N)CO)C(C)C)C(N)=O (HELM PEPTIDE1{S.A.A.[O=C([C@@H]1CCCN1C[C@H](Cc1ccccc1)N[*:1])[*:2]].V.V.[am]}$$$$V2.0)
IC50 [2]: 19000 nM

CC(C)(C)OC(=O)N[C@@H](Cc1ccccc1)[C@@H](O)C[C@@H](Cc1ccccc1)C(=O)N[C@H]1c2ccccc2C[C@H]1O
IC100 (H9 [7]): 200 nM

CC[C@H](C)[C@H](NC(=O)[C@@H]1CCCN1C[C@H](Cc1ccccc1)NC(=O)[C@H](CC(N)=O)NC(=O)[C@H](CCC(N)=O)NC(=O)[C@H](CO)NC(=O)[C@@H](N)C(C)C)C(=O)N[C@H](C(=O)O)C(C)C (HELM PEPTIDE1{V.S.Q.N.[O=C([C@@H]1CCCN1C[C@H](Cc1ccccc1)N[*:1])[*:2]].I.V}$$$$V2.0)
IC50 [2]: 3.5 nM
